Results published in article PMC9775322, “An Integrated Analysis of Mechanistic Insights into Biomolecular Interactions and Molecular Dynamics of Bio-Inspired Cu(II) and Zn(II) Complexes towards DNA/BSA/SARS-CoV-2 3CL^pro by Molecular Docking-Based Virtual Screening and FRET Detection” (Biomolecules, 2022).
pIC50: −log10 of the molar value.

Columns and labels:
BSA = molecular target: T1, BSA (Bos taurus, UniProt P02769); test: Förster's theory-based FRET computation, donor (BSA)–acceptor (compound); type: binding, bovine; parameters: kET (rate of exchange resonance energy transfer): unit not given here; settings: for J (normalized spectral overlap integral): BSA emission vs compound absorption; for kET (rate of exchange resonance energy transfer) / r (donor-acceptor separation): BSA–compound; for E (efficiency of energy transfer): E=1−F/F0; for B (average brightness of the complex-BSA system): free BSA = 6573.60 M^−1 cm^−1; for R0 (critical distance, 50% energy transfer): n = 1.36, Φ = 0.15, K^2 = 2/3
T1 construct: purchased Sigma Aldrich
T1 sequence (P02769 25-607): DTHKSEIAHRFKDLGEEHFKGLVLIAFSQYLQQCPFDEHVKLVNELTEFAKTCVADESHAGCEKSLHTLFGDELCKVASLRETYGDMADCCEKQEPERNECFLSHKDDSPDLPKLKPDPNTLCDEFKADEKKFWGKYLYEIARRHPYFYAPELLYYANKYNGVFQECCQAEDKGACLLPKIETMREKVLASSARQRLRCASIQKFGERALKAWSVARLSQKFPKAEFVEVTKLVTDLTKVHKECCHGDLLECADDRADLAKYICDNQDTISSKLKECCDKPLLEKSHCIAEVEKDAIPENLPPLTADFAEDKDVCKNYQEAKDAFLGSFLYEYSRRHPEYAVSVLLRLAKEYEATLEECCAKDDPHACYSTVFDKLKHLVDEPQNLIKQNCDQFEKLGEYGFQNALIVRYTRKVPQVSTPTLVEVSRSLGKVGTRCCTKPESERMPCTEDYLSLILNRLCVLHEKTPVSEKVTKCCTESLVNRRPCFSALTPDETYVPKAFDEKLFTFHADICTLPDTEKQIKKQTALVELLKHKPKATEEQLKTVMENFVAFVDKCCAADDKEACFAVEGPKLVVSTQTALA
Text: As per Förster’s theory, the critical distance of the donor-acceptor system can be determined with the supporting of the FRET approach to assess the binding affinity between BSA-substance systems. […]
excitation and emission directions, respectively. Also, the alteration in absorbance (OD) at the excitation and fluorescence wavelengths, respectively, is sometimes referred to as A ex and […]
F = 1+KSV [Q] = 1+ Kq τ0 (S13)
Where [Q] is represented as the sample concentration (quencher), the emission intensities F 0 and F are those in the […] of the quencher, respectively.
F ) = log Kass + nlog [Q] (S14)
KEB[EB] = Kapp[compound] (S15)
∆F = (F 0–F), Equation (16) was utilized to examine the Lineweaver –Burk binding constant (KLB) from the linear regression plot of 1/(F0–F) vs 1/[Q]. […]
γ =(F0–F)/F0, CF is denoted as the concentration of sample alone, the linear regression plot of (γ/CF) vs γ was employed to support equation (17), which was used to determine the values of KSA and n, respectively.
2.2.6. FRET calculation by Förster’s theory
Calculating FRET (Fluorescence Resonance Energy Transfer) is a crucial approach in determining the critical distance (r) between donor (BSA) and acceptor (test compound) molecules, in which the binding affinity between the BSA-complex systems could be evalued according to Förster’s theory. The overlap of the emission spectrum of the donor (BSA) and the absorption spectrum of the acceptor (compound) describes that the acceptor (compound) group may get excited as a result of the excited donor's (BSA) energy being lost to the ground […]
The relative orientation factor of the dipoles (K 2) is associated with the geometry of the BSA and complex of the dipoles, the value for random orientation (K 2 = 2/3) like in a fluid […]
F(λ) is represented as the corrected or the normalized emission intensity(OD) of the bovine serum albumin in the range of λ–(λ+∆λ), ε(λ) is denoted as the molar extinction coefficient of […]
The radiative, non-radiative decay and quenching rate constants are denoted as k r, knr and kq, respectively, and the concentration of complex (quenching species) is described as [Q].

CT-DNA = test: DNA binding by cyclic voltammetry; parameters: species or system calf; settings: for Kb, Method II: Cp/Cf vs [DNA]; for Kb, Method III: Ip^2 vs (Ipo^2 − Ip^2)/[DNA]; for Kred/Koxi (Calcd): Nernst equation, Ant.log nEs°/0.0591, n = 1; for Kred/Koxi Found (I): from method I binding constants; for Kb, Method I, Oxi / Kb, Method I, Red: log (1/[DNA]) vs log (I/I0 − I); for Kb, Method I, Oxi: oxidation; for Kb, Method I, Red: reduction; for S (binding site size): method II
Procedure: The CV experiment was carried out for free substances at 10 µM at room temperature with a 5 mM Tris-HCl/50 mM NaCl buffer solution (pH: 7.4). While CT-DNA increases (0–10 µM) in each sample solution, shifts in potential, including variations in the anodic and cathodic peak currents, have been monitored.
2.2.7. Evaluation of DNA interaction properties using cyclic voltammetry technique The electrochemical analysis is a critical entity to examine the electron transfer reactions of the test compounds. With a scan rate of 0.1V, the CHI 620C electrochemical analyzer was utilized with a three-electrode system consisting of glassy carbon as the working electrode, Ag/AgCl as the reference electrode, and platinum wire as the counter/auxiliary electrode to monitor changes in peak current and peak potential during the interaction between test compound and DNA. The changes in peak current and peak potential further afford data on the binding constant as well as the mode of interaction for test compound –DNA adducts. In single-compartment cells of 5 –15 mL, electrochemical titrations for all test compounds were executed at 25 °C in the absence and presence of DNA. The solutions were then deoxygenated by passing them through N 2 before measurements were made. The electrochemical analysis for free compounds was executed at a 10 µM concentration in the presence of 5mM Tr is-HCl /50 mM NaCl (pH = 7.2) buffer solution. Changes in the anodic […]
and cathodic peak currents, as well as potential shifts, have been observed as CT-DNA concentrations in each solution of complexes rise from 1 to 10 µM [32].
I ) = log [DNA] + log Kb (S24)
The peak currents of the chemical in the absence and presence of deoxyribonucleic acid are designated as I0 and I, respectively.
Kb values for all samples were estimated through the linear regression plot of log (1/[DNA]) versus log (I/I0–I) by method-I. Equation (S26) was attained from equation (S25).
Cf and Cb are represented as the free substance concentration and DNA-interacted compound, respectively, and equation (S28) was obtained by comparing equations (S26) and (S27).
Ipa is denoted as the anodic peak current in amperes, n is represented as the number of electrons participating in the redox (M 1+/M2+) process (n=1), The activation coefficient (charge transfer coefficient) is shown by the symbol α. and the value is equal to 0.5, which is a typically supported approximation for numerous quasi-reversible systems.
2.3. DFT and molecular modelling studies
DFT calculations were performed to comprehend the electronic structure and reactivity of ligand (HL) and metal complexes ( 1b-2b) using the Gaussian 09 package [ 34]. Geometries were fully optimized both in the gas phase and methanol solution using B3LYP, and comparatively later with the CAM-B3LYP and M06-2X functionals. For each complex, the […]

[1] = Superoxide scavenging assay; type: biochemical; settings: 590 nm
Aspergillus niger = test: Agar disc diffusion antifungal test; settings: for diameter of clear zone inhibition / Inhibition %: H; for diameter of clear zone inhibition: 20 µL of 100 µM on 6 mm disc, Control (DMSO) = 6 mm; for Inhibition %: (T–C)/T × 100
Mucor indicus = test: Agar disc diffusion antifungal test; settings: for diameter of clear zone inhibition / Inhibition %: J; for diameter of clear zone inhibition: 20 µL of 100 µM on 6 mm disc, Control (DMSO) = 6 mm; for Inhibition %: (T–C)/T × 100
Shigella flexneri = test: Agar disc diffusion antibacterial test; settings: for diameter of clear zone inhibition / Inhibition %: E, (-) Shigella flexneri; for diameter of clear zone inhibition: 20 µL of 100 µM on 6 mm disc, Control (DMSO) = 6 mm; for Inhibition %: (T–C)/T × 100
[2] = read-out: diameter of clear zone inhibition

Row | Structure (SMILES) | J (normalized spectral overlap integral) (BSA) | kET (rate of exchange resonance energy transfer) (BSA) | r (donor-acceptor separation) (BSA) [nm] | E (efficiency of energy transfer) (BSA) | B (average brightness of the complex-BSA system) (BSA) [M⁻¹ cm⁻¹] | R0 (critical distance, 50% energy transfer) (BSA) [nm] | Kb, Method II (CT-DNA) [M⁻¹] | Kb, Method III (CT-DNA) [M⁻¹] | Kred/Koxi (Calcd) (CT-DNA) | Kred/Koxi Found (I) (CT-DNA) | Kb, Method I, Oxi (CT-DNA) [M⁻¹] | Kb, Method I, Red (CT-DNA) [M⁻¹] | S (binding site size) (CT-DNA) [bp] | % Inhibition, superoxide ([1]; 40 µM) [%] | % Inhibition, superoxide ([1]; 80 µM) [%] | % Inhibition, superoxide ([1]; 120 µM) [%] | % Inhibition, superoxide ([1]; 160 µM) [%] | % Inhibition, superoxide ([1]; 200 µM) [%] | % Inhibition, superoxide ([1]; 240 µM) [%] | Inhibition % (Aspergillus niger) [%] | also measured
1 | [Cu+2].[O-]c1ccccc1N=Cc1ccc(N2CCOCC2)cc1.[O-]c1ccccc1N=Cc1ccc(N2CCOCC2)cc1.c1cnc2c(c1)ccc1cccnc12 [(1b), [Cu^II(L)2(phen)]] | 0.6852 × 10^−14 LM^−1cm^3 | 3.8294 | 2.7780 | 0.2769 | 4999.08 | 2.3673 | 35514 | 21695 | 3.2434 | 1.2053 | 17320 | 20878 | 0.267 | 08.45 | 16.53 | 32.18 | 48.09 | 60.93 | 68.21 | 40 | pIC50 [1]: 3.70; diameter of clear zone inhibition (Aspergillus niger): 10 mm; diameter of clear zone inhibition (Mucor indicus): 10 mm; Inhibition % (Mucor indicus): 40%; diameter of clear zone inhibition (Shigella flexneri): 17 mm; Inhibition % (Shigella flexneri): 65%
2 | [O-]c1ccccc1N=Cc1ccc(N2CCOCC2)cc1.[O-]c1ccccc1N=Cc1ccc(N2CCOCC2)cc1.[Zn+2].c1cnc2c(c1)ccc1cccnc12 [(2b), [Zn^II(L)2(phen)]] | 0.9460 × 10^−14 LM^−1cm^3 | 4.7730 | 2.8257 | 0.3231 | 5650.81 | 2.4980 | 32242 | 18300 | 3.7609 | 1.1168 | 14610 | 16317 | 0.248 | 06.70 | 12.58 | 24.23 | 40.35 | 52.23 | 60.02 | 45 | diameter of clear zone inhibition (Aspergillus niger): 11 mm; diameter of clear zone inhibition (Mucor indicus): 10 mm; Inhibition % (Mucor indicus): 40%; diameter of clear zone inhibition (Shigella flexneri): 14 mm; Inhibition % (Shigella flexneri): 57%
3 | Oc1ccccc1N=Cc1ccc(N2CCOCC2)cc1 [(HL), 2-(4-morpholinobenzylideneamino)phenol] | 0.8215 × 10^−14 LM^−1cm^3 | 5.8443 | 2.6685 | 0.3462 | 5339.79 | 2.4400 | 2477 | 4837 | 2.0964 | 1.1125 | 5280 | 5874 | 0.446 | 05.23 | 10.74 | 18.85 | 33.55 | 40.91 | 50.42 | 40 | zone of inhibition at 100 µM (Aspergillus niger; [2]): 10 mm; Inhibition % (Mucor indicus): 45%; zone of inhibition at 100 µM (Mucor indicus; [2]): 11 mm; Inhibition % (Shigella flexneri): 57%; zone of inhibition at 100 µM (Shigella flexneri; Shigella flexneri, read-out: diameter of clear zone inhibition): 14 mm
